According to patent US20150141381A1, “TETRACYCLINE COMPOUNDS HAVING TARGET THERAPEUTIC ACTIVITIES” (Paratek Pharmaceuticals, Inc., priority 2001, published 2015):
Like-named read-outs stand apart in the source and are kept apart here.

Columns and labels:
S. aureus RN450 = experiment: In Vitro Anti-Bacterial Activity Assay (MIC), gram positive; assay type: cell-based; settings: for MIC: Staphylococcus aureus, RN450, 18 h
E. coli mL308 225 = experiment: In Vitro Anti-Bacterial Activity Assay (MIC), gram negative; assay type: cell-based; settings: for MIC: Escherichia coli, ML308225, 18 h
[1] = MIC class, Table 3 (Continued), read-out: Gram+ activity
[2] = MIC class, Table 3 (Continued), read-out: Gram− activity
[3] = gram positive bacteria, read-out: Antibiotic Activity Gram + (MIC)
[4] = gram negative bacteria, read-out: Antibiotic Activity Gram − (MIC)

SMILES	MIC (S. aureus RN450; [3]) [mg/L]	MIC (E. coli mL308 225; [4]) [mg/L]	also measured
COc1ccc(-c2ccc(O)c3c2C[C@H]2C[C@H]4[C@H](N(C)C)C(O)=C(C(N)=O)C(=O)[C@@]4(O)C(O)=C2C3=O)cc1 [drawing 3310]	–	–	MIC (S. aureus RN450; [1]): < 4 mg/L; MIC (E. coli mL308 225; [2]): < 4 mg/L
CN(C)[C@@H]1C(O)=C(C(N)=O)C(=O)[C@@]2(O)C(O)=C3C(=O)c4c(O)ccc(-c5cc6ccccc6o5)c4C[C@H]3C[C@@H]12 [drawing 3311]	–	–	MIC (S. aureus RN450; [1]): < 4 mg/L; MIC (E. coli mL308 225; [2]): < 4 mg/L
COc1ccc(-c2ccc(O)c3c2C[C@H]2C[C@H]4[C@H](N(C)C)C(O)=C(C(N)=O)C(=O)[C@@]4(O)C(O)=C2C3=O)cc1 [drawing 3312]	–	–	Gram+ activity (S. aureus RN450; MIC class, Table 3 (Continued)): ** (compounds with MIC less than or equal to 4 μg/ml are indicated with **); Gram− activity (E. coli mL308 225; MIC class, Table 3 (Continued)): ** (compounds with MIC less than or equal to 4 μg/ml are indicated with **)
CN(C)[C@@H]1C(O)=C(C(N)=O)C(=O)[C@@]2(O)C(O)=C3C(=O)c4c(O)ccc(-c5ccc(C(C)(C)C)cc5)c4C[C@H]3C[C@@H]12 [drawing 3327]	–	–	MIC (S. aureus RN450; [1]): < 4 mg/L; Gram− activity (E. coli mL308 225; number printed instead of class symbol, Table 3 (Continued)): 1.5
Cc1ccc(/C=C/c2ccc(O)c3c2C[C@H]2C[C@H]4[C@H](N(C)C)C(O)=C(C(N)=O)C(=O)[C@@]4(O)C(O)=C2C3=O)cc1 [drawing 3339]	–	–	MIC (S. aureus RN450; [1]): < 4 mg/L; MIC (E. coli mL308 225; [2]): < 4 mg/L
Cc1ccc(/C=C/c2ccc(O)c3c2C[C@H]2C[C@H]4[C@H](N(C)C)C(O)=C(C(N)=O)C(=O)[C@@]4(O)C(O)=C2C3=O)cc1 [drawing 3345]	< 4	< 4	–
CN(C)c1cc(NC(=O)Oc2ccccc2)c(O)c2c1C[C@H]1C[C@H]3[C@H](N(C)C)C(O)=C(C(N)=O)C(=O)[C@@]3(O)C(O)=C1C2=O [drawing 3360]	–	–	MIC (S. aureus RN450; read-out: Antibiotic Activity Gram + (MIC)): > 4 mg/L; MIC (E. coli mL308 225; read-out: Antibiotic Activity Gram − (MIC)): > 4 mg/L
CCOC(=O)Nc1cc(N(C)C)c2c(c1O)C(=O)C1=C(O)[C@]3(O)C(=O)C(C(N)=O)=C(O)[C@@H](N(C)C)[C@@H]3C[C@@H]1C2 [drawing 3362]	< 4	< 4	–
CCOC(=O)Nc1cc(N(C)C)c2c(c1O)C(=O)C1=C(O)[C@]3(O)C(=O)C(C(N)=O)=C(O)[C@@H](N(C)C)[C@@H]3C[C@@H]1C2 [drawing 3364]	–	–	Antibiotic Activity Gram + (MIC) (S. aureus RN450; gram positive bacteria): ** (compounds with MIC less than or equal to 4 μg/ml are indicated with **); Antibiotic Activity Gram − (MIC) (E. coli mL308 225; gram negative bacteria): ** (compounds with MIC less than or equal to 4 μg/ml are indicated with **)
CC(C)CNCc1cc(N(C)C)c2c(c1O)C(=O)C1=C(O)[C@]3(O)C(=O)C(C(N)=O)=C(O)[C@@H](N(C)C)[C@@H]3C[C@@H]1C2 [drawing 3371]	–	–	Antibiotic Activity Gram + (MIC) (S. aureus RN450; gram positive bacteria): ** (compounds with MIC less than or equal to 4 μg/ml are indicated with **); Antibiotic Activity Gram − (MIC) (E. coli mL308 225; gram negative bacteria): ** (compounds with MIC less than or equal to 4 μg/ml are indicated with **)
CN(C)[C@@H]1C(O)=C(C(N)=O)C(=O)[C@@]2(O)C(O)=C3C(=O)c4c(O)ccc(-c5cc6ccccc6o5)c4C[C@H]3C[C@@H]12 [drawing 3387]	< 4	> 4	–
CN(C)CCC(=O)c1ccc(O)c2c1C[C@H]1C[C@H]3[C@H](N(C)C)C(O)=C(C(N)=O)C(=O)[C@@]3(O)C(O)=C1C2=O [drawing 3401]	< 4	> 4	–
COc1ccc(-c2ccc(O)c3c2C[C@H]2C[C@H]4[C@H](N(C)C)C(O)=C(C(N)=O)C(=O)[C@@]4(O)C(O)=C2C3=O)cc1 [drawing 3425]	< 4	< 4	–
CN(C)[C@@H]1C(O)=C(C(N)=O)C(=O)[C@@]2(O)C(O)=C3C(=O)c4c(O)ccc(-c5ccc(C(C)(C)C)cc5)c4C[C@H]3C[C@@H]12 [drawing 3426]	< 4	< 4	–
CN(C)[C@@H]1C(O)=C(C(N)=O)C(=O)[C@@]2(O)C(O)=C3C(=O)c4c(O)ccc(-c5ccoc5)c4C[C@H]3C[C@@H]12 [drawing 3429]	< 4	< 4	–
CN(C)c1cc(CNCC(C)(C)C)c(O)c2c1C[C@H]1C[C@H]3[C@H](N(C)C)C(O)=C(C(N)=O)C(=O)[C@@]3(O)C(O)=C1C2=O [drawing 3433]	< 4	> 4	–
CC(C)CNCc1cc(N(C)C)c2c(c1O)C(=O)C1=C(O)[C@]3(O)C(=O)C(C(N)=O)=C(O)[C@@H](N(C)C)[C@@H]3C[C@@H]1C2 [drawing 3469]	< 4	< 4	–
CC(C)CNCc1cc(N(C)C)c2c(c1O)C(=O)C1=C(O)[C@]3(O)C(=O)C(C(N)=O)=C(O)[C@@H](N(C)C)[C@@H]3C[C@@H]1C2 [drawing 3475]	–	–	Antibiotic Activity Gram + (MIC) (S. aureus RN450; gram positive bacteria): * (compounds with an MIC of greater than 4 μg/ml are indicated with *); Antibiotic Activity Gram − (MIC) (E. coli mL308 225; gram negative bacteria): * (compounds with an MIC of greater than 4 μg/ml are indicated with *)

SMILES	MIC (S. aureus RN450; [3]) [mg/L]	MIC (E. coli mL308 225; [4]) [mg/L]	also measured
CN(C)[C@@H]1C(O)=C(C(N)=O)C(=O)[C@@]2(O)C(O)=C3C(=O)c4c(O)ccc(-c5ccc6c(c5)OCO6)c4C[C@H]3C[C@@H]12 [drawing 3479]	< 4	< 4	–
CC(C)CNCc1cc(N(C)C)c2c(c1O)C(=O)C1=C(O)[C@]3(O)C(=O)C(C(N)=O)=C(O)[C@@H](N(C)C)[C@@H]3C[C@@H]1C2 [drawing 3497]	–	–	Antibiotic Activity Gram + (MIC) (S. aureus RN450; gram positive bacteria): ** (compounds with MIC less than or equal to 4 μg/ml are indicated with **); Antibiotic Activity Gram − (MIC) (E. coli mL308 225; gram negative bacteria): * (compounds with an MIC of greater than 4 μg/ml are indicated with *)
CN(C)[C@@H]1C(O)=C(C(N)=O)C(=O)[C@@]2(O)C(O)=C3C(=O)c4c(O)ccc(-c5ccc(CNCC(F)(F)F)cc5)c4C[C@H]3C[C@@H]12 [drawing 3505]	< 4	< 4	–
CN(C)[C@@H]1C(O)=C(C(N)=O)C(=O)[C@@]2(O)C(O)=C3C(=O)c4c(O)ccc(-c5ccc(CNCC(F)(F)F)cc5)c4C[C@H]3C[C@@H]12 [drawing 3506]	–	–	Antibiotic Activity Gram + (MIC) (S. aureus RN450; gram positive bacteria): ** (compounds with MIC less than or equal to 4 μg/ml are indicated with **); Antibiotic Activity Gram − (MIC) (E. coli mL308 225; gram negative bacteria): ** (compounds with MIC less than or equal to 4 μg/ml are indicated with **)
CN(C)[C@@H]1C(O)=C(C(N)=O)C(=O)[C@@]2(O)C(O)=C3C(=O)c4c(O)ccc(N5CCOCC5)c4C[C@H]3C[C@@H]12 [drawing 3548]	< 4	< 4	–
CCCOc1cccc2c1C(=O)C1=C(O)[C@]3(O)C(=O)C(C(N)=O)=C(O)[C@@H](N(C)C)[C@@H]3C[C@@H]1C2 [drawing 3578]	> 4	> 4	–
CCCOc1cccc2c1C(=O)C1=C(O)[C@]3(O)C(=O)C(C(N)=O)=C(O)[C@@H](N(C)C)[C@@H]3C[C@@H]1C2 [drawing 3586]	–	–	Antibiotic Activity Gram + (MIC) (S. aureus RN450; gram positive bacteria): * (compounds with an MIC of greater than 4 μg/ml are indicated with *); Antibiotic Activity Gram − (MIC) (E. coli mL308 225; gram negative bacteria): * (compounds with an MIC of greater than 4 μg/ml are indicated with *)
CN(C)[C@@H]1C(O)=C(C(N)=O)C(=O)[C@@]2(O)C(O)=C3C(=O)c4c(O)c(CN5CCCCC5)cc(-c5ccoc5)c4C[C@H]3C[C@@H]12 [drawing 3602]	< 4	> 4	–
C[C@H]1c2cccc(O)c2C(=O)C2=C(O)[C@]3(O)C(=O)C(C(N)=O)=C(O)[C@@H](N(C)C)[C@@H]3[C@@H](O)[C@@H]21 [drawing 3660]	< 4	> 4	–
C[C@H]1c2ccc(CNCC(C)(C)C)c(O)c2C(=O)C2=C(O)[C@]3(O)C(=O)C(C(N)=O)=C(O)[C@@H](N(C)C)[C@@H]3[C@@H](O)[C@@H]21 [drawing 3661]	> 4	> 4	–
C[C@H]1c2cccc(O)c2C(=O)C2=C(O)[C@]3(O)C(=O)C(C(N)=O)=C(O)[C@@H](N(C)C)[C@@H]3[C@@H](O)[C@@H]21 [drawing 3668]	–	–	Antibiotic Activity Gram + (MIC) (S. aureus RN450; gram positive bacteria): ** (compounds with MIC less than or equal to 4 μg/ml are indicated with **); Antibiotic Activity Gram − (MIC) (E. coli mL308 225; gram negative bacteria): * (compounds with an MIC of greater than 4 μg/ml are indicated with *)
CN(C)c1cc(CNCCC(F)(F)F)c(O)c2c1C[C@H]1C[C@H]3[C@H](N(C)C)C(O)=C(C(N)=O)C(=O)[C@@]3(O)C(O)=C1C2=O [drawing 3671]	< 4	< 4	–
CN(C)c1cc(CNCCC(F)(F)F)c(O)c2c1C[C@H]1C[C@H]3[C@H](N(C)C)C(O)=C(C(N)=O)C(=O)[C@@]3(O)C(O)=C1C2=O [drawing 3690]	–	–	Antibiotic Activity Gram + (MIC) (S. aureus RN450; gram positive bacteria): ** (compounds with MIC less than or equal to 4 μg/ml are indicated with **); Antibiotic Activity Gram − (MIC) (E. coli mL308 225; gram negative bacteria): ** (compounds with MIC less than or equal to 4 μg/ml are indicated with **)
CCc1cc(CN2CCC(F)(F)CC2)c(O)c2c1C[C@H]1C[C@H]3[C@H](N(C)C)C(O)=C(C(N)=O)C(=O)[C@@]3(O)C(O)=C1C2=O [drawing 3695]	< 4	< 4	–
CCc1cc(CN2CCC(F)(F)CC2)c(O)c2c1C[C@H]1C[C@H]3[C@H](N(C)C)C(O)=C(C(N)=O)C(=O)[C@@]3(O)C(O)=C1C2=O [drawing 3696]	–	–	Antibiotic Activity Gram + (MIC) (S. aureus RN450; gram positive bacteria): ** (compounds with MIC less than or equal to 4 μg/ml are indicated with **); Antibiotic Activity Gram − (MIC) (E. coli mL308 225; gram negative bacteria): ** (compounds with MIC less than or equal to 4 μg/ml are indicated with **)
Cc1cnc(N)n1Cc1cc(N(C)C)c2c(c1O)C(=O)C1=C(O)[C@]3(O)C(=O)C(C(N)=O)=C(O)[C@@H](N(C)C)[C@@H]3C[C@@H]1C2 [drawing 3711]	< 4	> 4	–
Cc1cnc(N)n1Cc1cc(N(C)C)c2c(c1O)C(=O)C1=C(O)[C@]3(O)C(=O)C(C(N)=O)=C(O)[C@@H](N(C)C)[C@@H]3C[C@@H]1C2 [drawing 3712]	–	–	Antibiotic Activity Gram + (MIC) (S. aureus RN450; gram positive bacteria): * (compounds with an MIC of greater than 4 μg/ml are indicated with *); Antibiotic Activity Gram − (MIC) (E. coli mL308 225; gram negative bacteria): * (compounds with an MIC of greater than 4 μg/ml are indicated with *)
